{
  "source": "patent US20260240845A1",
  "about": "“METHODS FOR TREATING OR PREVENTING CORONAVIRUS INFECTION SKELETAL SEQUELAE” (priority 2023, published 2026)",
  "key": {"[1]": {"tested_on": "SARS-COV-2-infected hamsters", "set-up": "species or system golden Syrian hamsters (Mesocricetus auratus)", "conditions": "hamster, in vivo"}, "[2]": {"tested_on": "C28/12", "experiment": "Rescue effect of macitentan on SP RBD-induced oxidative stress and mitochondrial dynamics in chondrocytes (CellROX, MitoTracker)", "format": "cell-based, human", "conditions": "C28/12 pre-treated with 10 μM Macitentan for 30 minutes, then SP RBD 10 μg/ml for 1 h", "procedure": "Chondrocyte cell lines C28/12 (human), ATDC5 (mouse) and human umbilical vein endothelial cells (HUVEC) were received as gifts from Prof. Danny Chan from the University of Hong Kong, Prof. Limin Rong from Sun Yat-Sen University and Prof.\nMo Yang from the Hong Kong Polytechnic University respectively. Both chondrocyte cell lines were maintained in DMEM/F12 culture medium supplemented with 5% heat-inactivated FBS, 50 U ml^−1 penicillin and 50 μg ml-^1 streptomycin. HUVEC were cultured in endothelial cell medium with 1% endothelial cell growth supplement and 1% antibiotic solution (ScienCell).\nTo investigate the rescue effect of Macitentan on RBD-induced oxidative stress accumulation and change in mitochondrial dynamics, cells seeded on coverslips were pre-treated with 10 μM Macitentan for 30 minutes before adding RBD for an hour.\nTo evaluate cellular oxidative stress, CellROX® Deep Red Reagent solution (Invitrogen) was used according to the manufacturer's instructions. Positive signal was visualized by excitation/emission at 640/665 nm. For visualising mitochondrial morphology, we stained the cells using Mito Tracker® Red CMXRos (Invitrogen) with excitation/emission at 579/599 nm. Cells were then counterstained and mounted by ProLong® Gold antifade reagent with 4′, 6-diamidino-2-phenylindole (DAPI). All the images were captured using Leica TCS SPE Confocal microscope."}, "[3]": {"tested_on": "mice injected with SP RBD", "set-up": "species or system Balb/c mice", "conditions": "mouse, in vivo"}, "[4]": {"tested_on": "SARS-COV-2-infected hamsters", "set-up": "species or system golden Syrian hamsters (Mesocricetus auratus)", "conditions": "hamster, in vivo", "remark": "listed apart in the source"}},
  "note": "Entries after “also recorded” stand apart in the source; their conditions may differ.",
  "data": [
    {"smiles": "CCCNS(=O)(=O)Nc1ncnc(OCCOc2ncc(Br)cn2)c1-c1ccc(Br)cc1", "note": "[macitentan]", "values": [
      {"measurement": "4HNE expression level in bone marrow cavity of subchondral bone (oxidative stress)", "setting": "[1]", "value": "lowered vWF and 4HNE expression level"},
      {"measurement": "BV/TV (micro-CT)", "setting": "[1]", "value": "no significant difference"},
      {"measurement": "amount of viral spike protein at local joint tissue (subchondral bone marrow cavity)", "setting": "[1]", "value": "tended to lower the amount of viral spike protein"},
      {"measurement": "area of the cysts at the osteochondral junction", "setting": "[1]", "value": "effectively reducing the area of the cysts"},
      {"measurement": "articular surface roughness", "setting": "[1]", "value": "No statistical significance"},
      {"measurement": "collagen loss (Masson's trichrome staining)", "setting": "[1]", "value": "prevented virus-induced collagen loss"},
      {"measurement": "fibrin exudate at the osteochondral junction", "setting": "[1]", "value": "decreasing the fibrin exudate"},
      {"measurement": "number of SP7+ osteoblasts progenitors", "setting": "[1]", "value": "without affecting the number of SP7^+ osteoblasts progenitors"},
      {"measurement": "number of TRAP+ osteoclasts in subchondral bone", "setting": "[1]", "value": "significantly lower number of TRAP^+ osteoclasts"},
      {"measurement": "number of chondrocytes in articular cartilage", "setting": "[1]", "value": "More chondrocytes were observed"},
      {"measurement": "number of cytoplasmic HMGB1 cells in articular cartilage", "setting": "[1]", "value": "decrease in the number of nuclear p16^INK4a and cytoplasmic HMGB1 cells"},
      {"measurement": "number of nuclear p16INK4a cells in articular cartilage", "setting": "[1]", "value": "decrease in the number of nuclear p16^INK4a"},
      {"measurement": "subchondral BMD (micro-CT)", "setting": "[1]", "value": "could restore subchondral BMD"},
      {"measurement": "vWF expression level in bone marrow cavity of subchondral bone", "setting": "[1]", "value": "lowered vWF and 4HNE expression level"},
      {"measurement": "SP RBD-induced cellular oxidative stress (CellROX staining)", "setting": "[2]", "value": "effectively lowered SARS-COV-2 spike protein-induced increase in oxidative stress"},
      {"measurement": "mitochondrial dynamics / morphology (MitoTracker staining)", "setting": "[2]", "value": "showed restoration of rod-like structures"},
      {"measurement": "SP RBD-induced subchondral bone loss (micro-CT, proximal epiphysis of tibia)", "setting": "[3]", "value": "rescue effect of macitentan on SP RBD-induced bone loss"},
      {"measurement": "accumulation of senescent chondrocytes (p16INK4a, HMGB1) in articular cartilage", "setting": "[3]", "value": "preventing accumulation of senescent chondrocytes"},
      {"measurement": "proteoglycan in articular cartilage (Safranin O/fast green)", "setting": "[3]", "value": "performed better in terms of preserving proteoglycan"},
      {"measurement": "paw withdrawal threshold / nociceptive tolerance (von Frey filament test)", "setting": "[3]; ip, 0.3 mg/kg", "value": "able to attain the same nociceptive tolerance as high dose after 12 days"},
      {"measurement": "paw withdrawal threshold (von Frey filament test)", "setting": "[3]; ip, 3 mg/kg", "value": "increase in paw withdrawal threshold after 5 days of treatment; also recorded: faster analgesic effect at the higher dose"},
      {"measurement": "BMD in tibial epiphysis (micro-CT)", "setting": "[4]", "value": "improvement in subchondral bone mass and microstructure; also recorded: significant increase in BMD and BV/TV"},
      {"measurement": "BV/TV in tibial epiphysis (micro-CT)", "setting": "[4]", "value": "improvement in subchondral bone mass and microstructure; also recorded: significant increase in BMD and BV/TV"},
      {"measurement": "amount of viral spike protein retained (subchondral bone marrow cavity)", "setting": "[4]", "value": "could reduce the amount of viral spike protein retained"},
      {"measurement": "articular cartilage structure", "setting": "[4]", "value": "did not lead to further improvement in articular cartilage structurally"},
      {"measurement": "chondrocyte dropout", "setting": "[4]", "value": "slight yet not significant improvement"},
      {"measurement": "cyst formation", "setting": "[4]", "value": "slight yet not significant improvement"},
      {"measurement": "expression level of vWF in bone marrow", "setting": "[4]", "value": "could effectively lower the expression level of vWF"},
      {"measurement": "number of SP7+ osteoblast progenitors", "setting": "[4]", "value": "increased the number of SP7^+ osteoblast progenitors"},
      {"measurement": "number of TRAP+ osteoclasts", "setting": "[4]", "value": "without affecting the number of TRAP^+ osteoclasts"},
      {"measurement": "number of senescent chondrocytes in articular cartilage (p16INK4a and HMGB1 staining)", "setting": "[4]", "value": "effectively lower the number of senescent chondrocytes"},
      {"measurement": "oxidative stress near vessels (4HNE staining)", "setting": "[4]", "value": "reduction of oxidative stress near vessels"},
      {"measurement": "trabecular number in tibial epiphysis (micro-CT)", "setting": "[4]", "value": "improvement in subchondral bone mass and microstructure"},
      {"measurement": "trabecular separation in tibial epiphysis (micro-CT)", "setting": "[4]", "value": "improvement in subchondral bone mass and microstructure"},
      {"measurement": "trabecular thickness in tibial epiphysis (micro-CT)", "setting": "[4]", "value": "improvement in subchondral bone mass and microstructure"}
    ]}
  ]
}
